No end group written: not given here.
T1: vascular endothelial (VE) cadherin (human, UniProt P33151 48-784)
T1 sequence (looked up): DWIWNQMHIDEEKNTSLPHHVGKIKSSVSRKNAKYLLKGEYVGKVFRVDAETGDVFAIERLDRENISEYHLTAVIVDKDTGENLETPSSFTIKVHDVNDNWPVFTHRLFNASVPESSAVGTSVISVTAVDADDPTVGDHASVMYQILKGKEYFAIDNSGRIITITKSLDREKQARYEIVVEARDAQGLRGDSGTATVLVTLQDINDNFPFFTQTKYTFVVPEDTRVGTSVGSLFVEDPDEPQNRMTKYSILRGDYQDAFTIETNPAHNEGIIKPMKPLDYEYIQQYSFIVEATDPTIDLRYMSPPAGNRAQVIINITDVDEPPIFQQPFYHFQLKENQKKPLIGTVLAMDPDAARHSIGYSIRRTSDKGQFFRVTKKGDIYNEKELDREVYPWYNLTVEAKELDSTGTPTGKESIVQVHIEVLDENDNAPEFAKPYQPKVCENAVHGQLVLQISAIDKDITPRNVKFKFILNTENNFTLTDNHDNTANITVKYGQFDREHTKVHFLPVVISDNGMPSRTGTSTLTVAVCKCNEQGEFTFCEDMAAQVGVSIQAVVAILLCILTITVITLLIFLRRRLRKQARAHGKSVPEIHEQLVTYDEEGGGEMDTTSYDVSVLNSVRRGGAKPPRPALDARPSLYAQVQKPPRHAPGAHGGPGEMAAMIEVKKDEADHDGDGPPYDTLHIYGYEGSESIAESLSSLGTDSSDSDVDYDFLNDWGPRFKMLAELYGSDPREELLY


Tests used:
RhoA = test: thrombin induced RhoA activation in HUVEC culture (Rho pull-down, Western blot); format: cell-based, human; details: 5 U/ml thrombin alone, 5 min
Method: The biological effect of the compounds was established in a model thrombin induced RhoA activation in human umbilical vein endothelial cell (HUVEC) culture.
HUVEC are grown to confluence under standard conditions. Before induction of Rho activity HUVEC were starved for 4 h by using IMDM (Gibco) without growth factor and serum supplements. After the starvation period 5 U/ml Thrombin (Calbiochem) or 5 U thrombin plus 50 μg/ml of test compound are added to the starvation medium for 1, 5 and 10 min. Active RhoA was isolated using Rho Assay Reagent from Upstate according to manufactures instructions. Isolates were separated on a 15% polyacrylamid gel and blotted on Nitrocellulose-Membrane (Bio-Rad). RhoA was dedected by using Anti-Rho (-A, -B, -C), clone55 from Upstate (1:500).

[1] = target: T1, vascular endothelial (VE) cadherin; test: cell-based or functional assay

Row | Molecule | Relative RhoA stimulation compared to unstimulated control (RhoA) | Relative RhoA stimulation compared to unstimulated control [1]
1 | thrombin | 3.8 | –
2 | GHRPLDKKREEAPSLRPAPPPISGG-OH | – | 0.85 fold of unstimulated control

From patent publication US20090286725A1, “PEPTIDES AND DERIVATIVES THEREOF, THE MANUFACTURING THEREOF AS WELL AS THEIR USE FOR PREPARING A THERAPEUTICALLY AND/OR PREVENTIVELY ACTIVE PHARMACEUTICAL COMPOSITION” (FIBREX MEDICAL RESEARCH & DEVELOPMENT GMBH, priority 2008, published 2009)
